One assay concerns the target Adenosine A1 receptor. More on the design: method as in PMID 11262085. The note with it: Fig. 10; cited from earlier work.
The target of another assay is T1, h5-HT3A (Homo sapiens, UniProt P46098).
T1 construct: expressed in transfected cells
T1 sequence (P46098 24-478): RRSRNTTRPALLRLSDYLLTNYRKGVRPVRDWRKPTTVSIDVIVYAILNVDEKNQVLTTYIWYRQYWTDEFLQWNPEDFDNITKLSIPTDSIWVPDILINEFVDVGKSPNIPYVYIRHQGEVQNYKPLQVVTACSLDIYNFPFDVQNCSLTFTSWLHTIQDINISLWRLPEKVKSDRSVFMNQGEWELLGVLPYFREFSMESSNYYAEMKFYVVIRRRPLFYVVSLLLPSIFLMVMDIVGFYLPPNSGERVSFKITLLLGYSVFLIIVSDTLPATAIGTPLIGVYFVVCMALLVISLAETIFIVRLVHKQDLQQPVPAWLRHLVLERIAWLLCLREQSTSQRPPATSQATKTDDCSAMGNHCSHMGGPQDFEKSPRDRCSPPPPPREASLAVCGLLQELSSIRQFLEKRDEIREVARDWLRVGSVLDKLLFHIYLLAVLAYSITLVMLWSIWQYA
The assay can be described thus: FMP assay at h5-HT3A-HEK293 cells. Type of assay: cell-based. The conditions noted are these: concentrations up to 300 μM, data not shown.

The target in assay [1] is T2, ZAC (Homo sapiens, UniProt Q401N2).
T2 sequence (Q401N2 26-412): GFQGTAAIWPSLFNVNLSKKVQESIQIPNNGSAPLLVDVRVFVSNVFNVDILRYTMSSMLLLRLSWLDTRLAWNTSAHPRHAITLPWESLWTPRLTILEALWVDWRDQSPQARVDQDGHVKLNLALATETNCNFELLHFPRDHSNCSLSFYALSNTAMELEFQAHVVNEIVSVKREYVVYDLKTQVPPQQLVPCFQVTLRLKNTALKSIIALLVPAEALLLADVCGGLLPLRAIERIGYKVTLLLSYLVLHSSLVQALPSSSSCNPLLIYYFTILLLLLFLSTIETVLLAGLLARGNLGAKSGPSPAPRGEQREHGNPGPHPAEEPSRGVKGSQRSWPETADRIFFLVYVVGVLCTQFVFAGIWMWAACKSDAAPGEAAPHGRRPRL
The assay can be described thus: FMP assay at ZAC-HEK293 cells. Type of assay: cell-based. The note with it: ZAC-HEK293 cells, FMP assay, n = 4. The procedure:
The screening of the 1,680 compounds in the compound library for antagonist activity at the ZAC-HEK293 cell line was performed in the FMP assay essentially as previously described. The day before the assay, cells were split into poly-D-lysine-coated black 96-well plates with clear bottoms (BD Biosciences, Palo Alto, CA) (6 × 10^4 cells/well). The following day, the culture medium was aspirated and the wells were washed once with 100 μl assay buffer (140 mM NaCl, 4.7 mM KCl, 2.5 mM CaCl2, 1.2 mM MgCl2, 11 mM HEPES, 10 mM D-glucose, pH 7.4), after which 100 μl assay buffer supplemented with FMP dye (0.5 mg/ml) and the various test compounds were added to the wells. The plate was then incubated at 37 °C for 30 min and assayed in a NOVOStar plate reader (BMG Labtechnologies, Offenburg, Germany) measuring emission at 560 nm caused by excitation at 530 nm before and up to 1 min after the addition of 33 μl of agonist solution. In the screening, the 1,680 compounds in the compound library were tested at assay concentrations in the 10–30 μM range, using Cu^2+ as agonist at an assay concentration of 200 μM.
Data from the FMP assay was analysed using KaleidaGraph 3.08 (Synergy Software, Reading, PA). Concentration-response curves for Cu^2+ and concentration-inhibition curves for compound 1 were constructed based on the difference in the relative fluorescence units (RFU) between the maximal fluorescence recorded before and after application of Cu^2+. The data were fitted to sigmoidal curves with variable slopes using nonlinear regression, and EC50 (Cu^2+) and IC50 (compound 1) values were derived from these equations.

For a further assay, the system named is HEK293 cells. Nature of the assay: FMP assay at HEK293 cells. Type of assay: cell-based. The note with it: concentrations up to 300 μM, data not shown.
The test system of a further assay is Hec1/Nek2 interaction. More on the design: method as in PMID 18922912. The conditions noted are these: Fig. 10; cited from earlier work.
For a further assay, the system named is urease. More on the design: method as in PMID 30086567. The conditions noted are these: Fig. 10; cited from earlier work.
Another assay has as its target glucokinase. More on the design: method as in PMID 19282189. The note with it: Fig. 10; cited from earlier work.
In assay [2] the target is metabotropic glutamate receptor 1. More on the design: method as in PMID 19674894. The conditions noted are these: Fig. 10; cited from earlier work.
The target of another assay is necroptosis. More on the design: method as in PMID 30400632. The conditions noted are these: Fig. 10; cited from earlier work.
The target of a further assay is stearoyl-CoA desaturase. On the set-up: method as in PMID 19541482. The note with it: Fig. 10; cited from earlier work.
Assay [3] deals with T2, ZAC. The conditions noted are these: Zn2+ (1 mM) as agonist, TEVC; cited from earlier work.
In a further assay the target is Adenosine A2A receptor. On the set-up: method as in PMID 21210664. The note with it: Fig. 10; cited from earlier work.

`COc1ccc(C(=O)Nc2nc(-c3ccccc3)cs2)cc1` [LUF5433]: at Adenosine A1 receptor, the IC50 is 32 nM.

Regarding `[Cl][Cu][Cl]` [Cu^2+, CuCl2], the Agonist response entry on h5-HT3A and in the assay with HEK293 cells was “did not evoke any responses” throughout. In addition, at ZAC [1], the “pEC50 ± S.E.M. (agonist)” value is on record as 4.59 ± 0.17. For the same compound, the concentration for a half-maximal effect (EC50) on ZAC [1] (read-out: EC50 (agonist)) is 26000 nM.

For the compound `Cc1ccc(-c2csc(NC(=O)c3ccccc3)n2)c(C)c1` [INH1], the IC50 result with Hec1/Nek2 interaction is listed as “in uM range”.

For `O=C(Nc1nc(Cc2nnc(SCc3ccc(F)cc3)o2)cs1)c1ccccc1` [Compound 7h], in the assay with urease, the IC50 is 2200 nM.

Take `Cc1csc(NC(=O)c2cc(Oc3ccc(S(C)(=O)=O)cc3)cc(OC(C)C)c2)n1` [Compound 27e]: the EC50 on glucokinase was 330 nM.

Take `CC(C)Nc1cc(-c2csc(N(C)C(=O)c3ccc(F)cc3)n2)ncn1` [Compound 27]: the IC50 in assay [2] is 5.1 nM.

As for `CCn1c(SCc2ccc(C(=O)Nc3nccs3)cc2)nnc1-c1ccc(N)cc1` [NTB451], at necroptosis, the inhibitory constant (Ki) was 7900 nM.

Regarding `CCNc1ccc(C(=O)Nc2ncc(Cc3cccc(C(F)(F)F)c3)s2)cc1OCCO` [Compound 37c], the IC50 on stearoyl-CoA desaturase is 0.04 nM.

Regarding `COc1cc2c3cc1Oc1cc(ccc1O)C[C@@H]1c4c(cc(OC)c(O)c4Oc4ccc(cc4)C[C@@H]3N(C)CC2)CC[N+]1(C)C` [TC, tubocurarine], the Fitted inhibition range on ZAC [3] is given as ~ 94%.

As to `CC(C)(C)CC(=O)Nc1c(F)cc(C(=O)Nc2nccs2)cc1F` [Compound 28], the Ki on Adenosine A2A receptor is 5.9 nM.
